Broadly, the EC50 is the concentration needed to bring the measured effect to its halfway point.

The results in this text go back to US8541379B2 (Ajinomoto Co., Inc., priority 2009, dated 2013).

Starred links: 1 amine or outer side, 2 acyl side, 3 side chain; linkers in the order of their positions; H or OH if unused. Non-standard residues stand in square brackets, D forms with d. No end group written: not given here. γGlu = O=C(O)[C@H](CCC(=O)[*:2])N[*:1]

One assay has as its target T1, human CaSR (Homo sapiens, UniProt P41180, E1011Q).
T1 construct: expressed in transfected cells; host or cells: 293E cells (EBNA1-expressing HEK293, ATCC CRL-10852), transient transfection with Fugene6
T1 sequence (P41180 20-1078 E1011Q): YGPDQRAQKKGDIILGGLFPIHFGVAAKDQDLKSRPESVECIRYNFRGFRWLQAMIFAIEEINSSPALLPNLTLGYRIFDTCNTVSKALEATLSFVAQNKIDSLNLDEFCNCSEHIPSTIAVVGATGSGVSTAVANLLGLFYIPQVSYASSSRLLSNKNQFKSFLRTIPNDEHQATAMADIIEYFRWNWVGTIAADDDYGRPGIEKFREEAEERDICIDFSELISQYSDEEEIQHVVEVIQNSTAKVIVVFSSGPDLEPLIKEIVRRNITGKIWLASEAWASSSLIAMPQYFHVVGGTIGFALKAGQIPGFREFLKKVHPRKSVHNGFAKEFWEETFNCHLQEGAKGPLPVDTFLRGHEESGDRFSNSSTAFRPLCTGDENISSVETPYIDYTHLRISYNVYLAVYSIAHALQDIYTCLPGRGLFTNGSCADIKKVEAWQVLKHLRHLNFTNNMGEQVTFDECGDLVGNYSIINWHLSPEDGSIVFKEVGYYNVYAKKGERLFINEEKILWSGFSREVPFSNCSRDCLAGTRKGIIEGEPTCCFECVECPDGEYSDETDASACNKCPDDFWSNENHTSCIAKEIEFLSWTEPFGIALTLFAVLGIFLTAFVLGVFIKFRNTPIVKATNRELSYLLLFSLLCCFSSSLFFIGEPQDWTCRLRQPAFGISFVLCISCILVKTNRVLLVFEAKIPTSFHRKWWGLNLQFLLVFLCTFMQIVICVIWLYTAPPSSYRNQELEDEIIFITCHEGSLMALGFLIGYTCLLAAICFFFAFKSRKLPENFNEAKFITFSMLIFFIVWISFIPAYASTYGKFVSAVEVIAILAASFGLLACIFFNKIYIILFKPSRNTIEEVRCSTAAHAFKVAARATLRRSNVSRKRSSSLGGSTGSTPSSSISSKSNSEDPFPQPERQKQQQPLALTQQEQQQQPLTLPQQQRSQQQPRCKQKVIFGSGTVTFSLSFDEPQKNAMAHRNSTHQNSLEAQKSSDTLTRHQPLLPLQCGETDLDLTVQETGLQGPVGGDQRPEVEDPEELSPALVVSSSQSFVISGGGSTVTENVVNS
The assay can be described thus: Evaluation of CaSR agonist activity (Ca2+ fluorescence, hCaSR-transfected 293E cells). In kind it is cell-based. As to conditions: 293E cells transfected with hCaSR/pcDNA3.1, Calcium 4 fluorescence, FLEX Station. How it is done:
293E Cells (EBNA1-expresion HEK293 cells, ATCC No. CRL-10852) were cultivated in DMEN/Ham's-F12 (3.15/mL glucose-containing Dulbecco's modified Eagle medium, available from Nakaraitesk Company) supplemented with 10% fetal calf serum, in the presence of 200 μg/mL of G418 (available from Genetisin). The cultured cells were inoculated in F25 flask at a density of 3×10^6 cells/10 mL, the flask was allowed to stand over 24 hours in a CO2 incubator (5% CO2, 37° C.), and then the human CaSR-expression plasmid hCaSR/pcDNA3.1 was transformed or transfected with a reagent for transfection Fugene6 (available from Roche Company). The transfected plasmid was maintained in a CO2 incubator for 6 to 7 hours, then the cells were recovered using a 10% fetal calf serum-containing DMEM/Ham's-F12 and the cells were inoculated in each well of a poly-D-lysine coat 96-well plate (BD-Biocoat) at a density of 70,000 cells/well.
To each well of the 96-well plate, each test compound was dissolved in a 0.1% BSA-containing Assay Buffer in an amount of 50 μl/well, and then any change of the intensity of fluorescence was monitored over 3 minutes using FLEX Station (available from Molecular Devices Company).
Method for the Determination of EC50:
The difference (RFU (Max-Min)) between the maximum and minimum fluorescent intensities observed for each well before and after the addition of each specific test compound was determined by the automatic calculation using FLEX Station. The activity rate was calculated while the RFU (Max-Min) value observed when adding the compound at the maximum concentration was defined to be 100% and the RFU (Max-Min) value observed when using the 0.1% BSA-containing Assay Buffer free of any test compound was defined to be 0%, followed by subjecting the resulting data to the curve-fitting procedures using the spreadsheet software Xfit or Graph-Pad-Prism to thus determine the EC50 which was the concentration of the compound at the activity rate of 50%.
In addition, the same EC50-determining procedures used above were repeated except for using other dipeptides as Comparative Examples.

Assay [1] in a line: Quantitative sensory evaluation test of kokumi-imparting activity. In kind it is in vivo, human. Conditions: n=4; for Intensity of kokumi, Initial Taste: scale control 0, strong 3, very strong 5. Here is the method: This quantitative sensory evaluation test was carried out according to the following procedures: The intensity of the kokumi-imparting activity observed for each test compound was determined as a value observed when blending 0.00001 to 0.5 g/dL of the corresponding test compound with the distilled water containing sodium glutamate (0.05 g/dL), inosinic acid monophosphate (0.05 g/dL), and sodium chloride (0.5 g/dL). […] The evaluation criteria are assumed to be as follows: control: 0 point; strong: 3 points; very strong: 5 points. Moreover, to clarify the criteria, the initial taste and the middle/after taste of γ-Glu-Val-Gly were set at 3.0 points, respectively. The scoring or rating was carried out using the method of line scale and more specifically, it was carried out by writing each corresponding score on a straight line on which points corresponding to −5˜0˜5 had been indicated. The panelists used in this test were defined to be persons who had been engaged in the development of seasonings for foods over not less than one year of the cumulative time period and who could judge that the difference in the titer between γ-Glu-Cys-Gly and γ-Glu-Val-Gly added to a solution having umami/salty taste is about 10 times (while confirming the ability of these persons at regular intervals). The evaluation was carried out at n (the number of panelists used)=4. The term “initial taste” means the taste which develops from 0 to 2 seconds after the sample is placed in the panelist's mouth, while the term “middle/after taste” means the taste which develops thereafter.
In addition, γ-Glu-Val-Gly, γ-Glu-Cys, γ-Glu-Val, γ-Glu-Ala and γ-Glu-Ser were likewise inspected for their kokumi-imparting effect according to the same procedures used above.

Where [2] appears, read: 0.01 g/dL in umami/salty solution.
The mark [3] stands for this setting: 0.01 g/dL in water with MSG 0.05, IMP 0.05, NaCl 0.5 g/dL.
Setting [4] is: 0.001 g/dL in water with MSG 0.05, IMP 0.05, NaCl 0.5 g/dL, reference set at 3.0.
[5] abbreviates: 0.2 g/dL in water with MSG 0.05, IMP 0.05, NaCl 0.5 g/dL.

Regarding `N[C@@H](CCC(=O)N[C@@H](CS)C(=O)O)C(=O)O` [γ-Glu-Cys], at human CaSR, the EC50 is 0.16 µM. The “Sensory Evaluation Profile” value in assay [1] (setting [2]) is “Mainly the middle and after tastes”. In assay [1] (setting [3]), the “Intensity of kokumi, Middle/After Taste” value came to 3.1 points and the “Intensity of kokumi, Initial Taste” value is 3.1 points.
As to [γGlu]-Val-Gly, in assay [1] (setting [4]), the “Intensity of kokumi, Middle/After Taste” value was 3.0 points and the “Intensity of kokumi, Initial Taste” value came out at 3.0 points.
Take `C[C@H](NC(=O)CC[C@H](N)C(=O)O)C(=O)O` [γ-Glu-Ala]: at human CaSR, the concentration for a half-maximal effect (EC50) was 1.24 µM. Further, in assay [1] (0.2 g/dL in umami/salty solution), the “Sensory Evaluation Profile” value was “Mainly the tastes similar to the sour”. In addition, in assay [1] (setting [5]), the “Intensity of kokumi, Middle/After Taste” value was 4.3 points and the “Intensity of kokumi, Initial Taste” value is given as 4.5 points.
In the case of `CC[C@H](NC(=O)CC[C@H](N)C(=O)O)C(=O)O`, the EC50 on human CaSR is 0.21 µM.
As to `CCCC[C@H](NC(=O)CC[C@H](N)C(=O)O)C(=O)O` [γ-Glu-Nle, γ-L-glutamyl-L-norleucine], at human CaSR, the EC50 came out at 4.41 µM.
For `CC(C)(C)[C@H](NC(=O)CC[C@H](N)C(=O)O)C(=O)O` [γ-Glu-tLeu], the EC50 on human CaSR was determined as 3.06 µM.
Take `CC(C)(NC(=O)CC[C@H](N)C(=O)O)C(=O)O` [γ-Glu-Aib]: the EC50 on human CaSR came to 15.4 µM.
As to `N[C@@H](CCC(=O)N[C@@H](CO)C(=O)O)C(=O)O` [γ-Glu-Ser], the EC50 on human CaSR is 11 µM. Moreover, in assay [1] (setting [5]), the “Intensity of kokumi, Middle/After Taste” value stood at 3.0 points and the “Intensity of kokumi, Initial Taste” value worked out at 3.6 points.
`CC(C)[C@H](NC(=O)CC[C@H](N)C(=O)O)C(=O)O` [γ-Glu-Val]: the EC50 at human CaSR is 1.03 µM. Also, in assay [1] (setting [2]), the “Sensory Evaluation Profile” value is listed as “The after taste was quite weak”. Besides, in assay [1] (setting [3]), the “Intensity of kokumi, Middle/After Taste” value amounted to 2.4 points and the “Intensity of kokumi, Initial Taste” value is 3.1 points.
On to `C[C@@H](O)[C@H](NC(=O)CC[C@H](N)C(=O)O)C(=O)O` [γ-Glu-Thr], for which the EC50 on human CaSR was found to be 6.97 µM.
